Experiment [1] has as its target Serine/threonine-protein kinase Nek5 (Homo sapiens, UniProt Q6P3R8). As to the kind of experiment: Inhibition of NEK5 (unknown origin) assessed as dissociation constant.
The target of experiment [2] is Serine/threonine-protein kinase Nek2 (Homo sapiens, UniProt P51955). Put plainly: Inhibition of NEK2 (unknown origin) assessed as dissociation constant.
The target of experiment [3] is T1, Eukaryotic translation initiation factor 2-alpha kinase 3 (Homo sapiens, UniProt Q9NZJ5).
T1 sequence (Q9NZJ5 whole entry): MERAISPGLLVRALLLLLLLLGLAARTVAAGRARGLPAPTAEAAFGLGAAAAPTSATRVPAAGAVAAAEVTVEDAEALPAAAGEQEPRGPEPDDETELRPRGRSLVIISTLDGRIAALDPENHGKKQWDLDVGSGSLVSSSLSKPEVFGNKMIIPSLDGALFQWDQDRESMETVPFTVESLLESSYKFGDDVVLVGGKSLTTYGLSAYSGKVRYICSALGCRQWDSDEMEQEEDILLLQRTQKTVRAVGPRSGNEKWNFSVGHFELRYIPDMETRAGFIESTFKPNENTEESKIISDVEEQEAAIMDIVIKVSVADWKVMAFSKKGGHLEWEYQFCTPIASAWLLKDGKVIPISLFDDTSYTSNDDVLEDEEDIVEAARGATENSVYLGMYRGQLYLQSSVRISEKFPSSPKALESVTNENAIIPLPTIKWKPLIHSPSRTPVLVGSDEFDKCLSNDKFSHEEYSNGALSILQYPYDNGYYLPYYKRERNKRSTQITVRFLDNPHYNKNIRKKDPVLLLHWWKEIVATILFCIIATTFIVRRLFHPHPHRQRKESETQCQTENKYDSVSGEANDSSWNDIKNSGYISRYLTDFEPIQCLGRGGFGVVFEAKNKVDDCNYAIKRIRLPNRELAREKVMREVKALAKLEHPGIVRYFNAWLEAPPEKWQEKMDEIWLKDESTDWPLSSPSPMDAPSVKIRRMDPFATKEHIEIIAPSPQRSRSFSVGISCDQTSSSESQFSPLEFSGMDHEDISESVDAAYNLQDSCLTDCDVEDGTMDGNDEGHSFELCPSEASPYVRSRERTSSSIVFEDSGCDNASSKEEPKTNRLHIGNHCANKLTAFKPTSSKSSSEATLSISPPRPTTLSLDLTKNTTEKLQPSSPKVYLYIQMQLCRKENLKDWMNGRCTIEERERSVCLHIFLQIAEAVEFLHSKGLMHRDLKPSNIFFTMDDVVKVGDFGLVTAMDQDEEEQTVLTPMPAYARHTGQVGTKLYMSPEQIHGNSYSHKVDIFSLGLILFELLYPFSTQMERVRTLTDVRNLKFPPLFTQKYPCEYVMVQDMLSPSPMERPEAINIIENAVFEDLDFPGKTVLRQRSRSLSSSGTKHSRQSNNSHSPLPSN
Put plainly: Inhibition of PERK (unknown origin).

The target in experiment [4] is T2, Serine/threonine-protein kinase Nek10 (Homo sapiens) (UniProt Q6ZWH5).
T2 sequence (whole entry): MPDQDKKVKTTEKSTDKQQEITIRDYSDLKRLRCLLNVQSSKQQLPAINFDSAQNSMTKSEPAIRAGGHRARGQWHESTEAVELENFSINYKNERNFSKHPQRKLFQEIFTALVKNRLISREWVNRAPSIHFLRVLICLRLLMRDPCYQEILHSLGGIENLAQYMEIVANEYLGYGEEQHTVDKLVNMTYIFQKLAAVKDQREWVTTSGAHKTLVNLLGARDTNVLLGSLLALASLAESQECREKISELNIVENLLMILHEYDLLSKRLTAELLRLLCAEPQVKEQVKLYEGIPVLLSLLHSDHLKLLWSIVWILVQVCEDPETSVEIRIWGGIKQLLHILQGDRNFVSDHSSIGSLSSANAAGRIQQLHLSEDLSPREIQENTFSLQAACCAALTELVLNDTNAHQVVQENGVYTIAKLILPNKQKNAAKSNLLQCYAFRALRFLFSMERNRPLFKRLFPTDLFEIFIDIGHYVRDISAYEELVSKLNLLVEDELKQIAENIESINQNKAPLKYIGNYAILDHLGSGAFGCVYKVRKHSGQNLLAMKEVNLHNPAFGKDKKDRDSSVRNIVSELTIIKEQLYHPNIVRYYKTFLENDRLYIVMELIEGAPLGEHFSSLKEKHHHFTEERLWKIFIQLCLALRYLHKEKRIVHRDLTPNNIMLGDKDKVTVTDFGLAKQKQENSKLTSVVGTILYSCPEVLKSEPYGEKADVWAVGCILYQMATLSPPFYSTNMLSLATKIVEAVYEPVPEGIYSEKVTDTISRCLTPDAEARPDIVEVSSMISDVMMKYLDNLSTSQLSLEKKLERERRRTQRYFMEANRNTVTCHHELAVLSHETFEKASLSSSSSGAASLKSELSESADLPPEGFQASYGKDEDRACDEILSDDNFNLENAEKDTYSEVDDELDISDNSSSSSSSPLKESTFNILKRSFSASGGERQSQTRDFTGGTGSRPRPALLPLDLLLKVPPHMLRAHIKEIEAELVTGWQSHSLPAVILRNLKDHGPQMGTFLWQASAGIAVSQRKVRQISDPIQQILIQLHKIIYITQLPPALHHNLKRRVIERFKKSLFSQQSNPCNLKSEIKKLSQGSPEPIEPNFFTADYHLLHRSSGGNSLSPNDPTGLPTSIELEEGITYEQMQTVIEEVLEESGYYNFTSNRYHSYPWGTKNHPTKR
As to the kind of experiment: Inhibition of NEK10 (unknown origin) at 10 uM relative to control.

In experiment [5] the target is Mitogen-activated protein kinase 8 (Homo sapiens, UniProt P45983). As to the kind of experiment: Inhibition of JNK1 (unknown origin).
Mitogen-activated protein kinase 8, sequence (P45983 whole entry): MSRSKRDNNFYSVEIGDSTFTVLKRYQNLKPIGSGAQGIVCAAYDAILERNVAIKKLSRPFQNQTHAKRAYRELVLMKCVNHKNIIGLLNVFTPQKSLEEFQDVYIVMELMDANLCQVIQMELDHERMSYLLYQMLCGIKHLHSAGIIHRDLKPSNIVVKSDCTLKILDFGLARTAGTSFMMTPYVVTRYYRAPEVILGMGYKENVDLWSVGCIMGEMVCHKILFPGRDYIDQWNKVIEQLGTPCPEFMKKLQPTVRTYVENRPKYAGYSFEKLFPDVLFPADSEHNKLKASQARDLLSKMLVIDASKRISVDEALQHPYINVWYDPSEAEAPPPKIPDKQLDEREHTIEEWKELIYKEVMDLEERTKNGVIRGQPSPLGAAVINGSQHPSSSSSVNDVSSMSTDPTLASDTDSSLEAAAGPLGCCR

pIC50, pKd: −log10 of the molar value.

Serine/threonine-protein kinase Nek2, sequence (P51955 whole entry): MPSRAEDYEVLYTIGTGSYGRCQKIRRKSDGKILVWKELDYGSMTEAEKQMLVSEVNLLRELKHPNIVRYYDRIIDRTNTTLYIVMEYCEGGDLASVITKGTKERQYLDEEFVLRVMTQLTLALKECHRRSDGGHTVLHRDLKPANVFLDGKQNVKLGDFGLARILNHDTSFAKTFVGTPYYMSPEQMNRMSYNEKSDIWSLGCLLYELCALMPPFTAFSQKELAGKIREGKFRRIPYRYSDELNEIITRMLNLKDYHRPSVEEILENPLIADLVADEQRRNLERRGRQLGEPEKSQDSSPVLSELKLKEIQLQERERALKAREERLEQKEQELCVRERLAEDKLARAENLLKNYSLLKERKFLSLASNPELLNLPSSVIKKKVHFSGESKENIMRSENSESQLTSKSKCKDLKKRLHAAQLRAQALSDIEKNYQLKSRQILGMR
Serine/threonine-protein kinase Nek5, sequence (Q6P3R8 whole entry): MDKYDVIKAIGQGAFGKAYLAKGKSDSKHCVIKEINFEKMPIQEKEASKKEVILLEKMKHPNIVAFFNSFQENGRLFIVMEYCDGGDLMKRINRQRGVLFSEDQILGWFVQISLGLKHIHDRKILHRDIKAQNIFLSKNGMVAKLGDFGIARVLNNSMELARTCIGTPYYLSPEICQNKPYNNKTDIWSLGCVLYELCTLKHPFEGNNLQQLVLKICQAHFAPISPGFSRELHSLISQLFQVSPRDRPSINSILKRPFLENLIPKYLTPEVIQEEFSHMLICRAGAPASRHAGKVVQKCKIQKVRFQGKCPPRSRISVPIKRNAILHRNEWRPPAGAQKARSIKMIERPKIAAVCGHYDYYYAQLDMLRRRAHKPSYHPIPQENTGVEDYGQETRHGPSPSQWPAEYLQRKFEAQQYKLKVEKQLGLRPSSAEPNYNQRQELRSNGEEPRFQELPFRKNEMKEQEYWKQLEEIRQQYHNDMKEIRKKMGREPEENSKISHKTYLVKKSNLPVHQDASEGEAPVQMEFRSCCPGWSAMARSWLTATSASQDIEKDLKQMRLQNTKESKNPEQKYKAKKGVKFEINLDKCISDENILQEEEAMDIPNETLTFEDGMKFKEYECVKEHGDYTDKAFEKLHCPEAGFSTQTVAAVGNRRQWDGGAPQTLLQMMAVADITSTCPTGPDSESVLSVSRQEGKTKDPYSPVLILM

With `COc1cc(Nc2ncc3c(C)nc(-c4cc5ccccc5[nH]4)n3n2)cc(OC)c1OC`, the negative-log Kd (pKd) in experiment [1] is 6.14.

In the case of `COc1cccc(C2=C(Nc3ccc(Cl)c(C(=O)O)c3)C(=O)NC2=O)c1`, in experiment [2], the pKd is 6.34.

As to `Cn1cc(-c2cnc(N)c3c(-c4ccc5c(c4)CCN5C(=O)Cc4ccccc4)csc23)cn1`, the pIC50 in experiment [3] is above 7.82.

In experiment [3], `Nc1nccc2scc(-c3ccc4c(c3)CCN4C(=O)Cc3ccccc3)c12` showed a negative-log IC50 (pIC50) above 7.82.

`Nc1nccc2scc(-c3ccc4c(c3)CCN4C(=O)Cc3cc(F)ccc3F)c12`: the pIC50 in experiment [3] was above 7.82.

With `Nc1ncc(-c2cn[nH]c2)c2scc(-c3ccc4c(c3)CCN4C(=O)Cc3ccccc3)c12`, in experiment [3], the pIC50 is above 7.82.

Regarding `O=C1NC(=O)/C(=C/c2ccc3nccc(-c4ccncc4)c3c2)S1`, the % control in experiment [4] was 0%.

For `Cc1ccc(CC(=O)N2CCc3cc(-c4cn(C)c5ncnc(N)c45)ccc32)cc1`, in experiment [3], the pIC50 is 7.77.

In turn, `CN(C)C/C=C/C(=O)Nc1cccc(C(=O)Nc2ccc(Nc3nccc(-c4cccnc4)n3)cc2)c1` showed a pIC50 in experiment [5] of 7.39.

By pKd is commonly meant the negative decadic logarithm of the Kd, by convention in mol/L. As usually defined, the pIC50 is −log10 of the IC50, conventionally taken in molar units.

Values taken from ChEMBL document CHEMBL5252509, “In depth analysis of kinase cross screening data to identify chemical starting points for inhibition of the Nek family of kinases” (Medchemcomm, 2018).
